Source: US20230092890A1, “1, 3, 4-Oxadiazole derivative compounds as histone deacetylase 6 inhibitor, and the pharmaceutical composition comprising the same” (Chong Kun Dang Pharmaceutical Corp., priority 2019, published 2023)

Key:
HDAC6 human recombinant = target: T1, HDAC6 human recombinant (Homo sapiens, UniProt Q9UBN7); experiment: HDAC enzyme activity inhibition (in vitro), HDAC6 assay; assay type: biochemical; conditions: samples at 0.1, 1, 10, 100 and 1000 nM; 37° C. 60 minutes; fluorescence Ex 390, Em 460; read-out: HDAC6 IC50
T1 construct: purchased Calbiochem 382180
T1 sequence (Q9UBN7 1-1215): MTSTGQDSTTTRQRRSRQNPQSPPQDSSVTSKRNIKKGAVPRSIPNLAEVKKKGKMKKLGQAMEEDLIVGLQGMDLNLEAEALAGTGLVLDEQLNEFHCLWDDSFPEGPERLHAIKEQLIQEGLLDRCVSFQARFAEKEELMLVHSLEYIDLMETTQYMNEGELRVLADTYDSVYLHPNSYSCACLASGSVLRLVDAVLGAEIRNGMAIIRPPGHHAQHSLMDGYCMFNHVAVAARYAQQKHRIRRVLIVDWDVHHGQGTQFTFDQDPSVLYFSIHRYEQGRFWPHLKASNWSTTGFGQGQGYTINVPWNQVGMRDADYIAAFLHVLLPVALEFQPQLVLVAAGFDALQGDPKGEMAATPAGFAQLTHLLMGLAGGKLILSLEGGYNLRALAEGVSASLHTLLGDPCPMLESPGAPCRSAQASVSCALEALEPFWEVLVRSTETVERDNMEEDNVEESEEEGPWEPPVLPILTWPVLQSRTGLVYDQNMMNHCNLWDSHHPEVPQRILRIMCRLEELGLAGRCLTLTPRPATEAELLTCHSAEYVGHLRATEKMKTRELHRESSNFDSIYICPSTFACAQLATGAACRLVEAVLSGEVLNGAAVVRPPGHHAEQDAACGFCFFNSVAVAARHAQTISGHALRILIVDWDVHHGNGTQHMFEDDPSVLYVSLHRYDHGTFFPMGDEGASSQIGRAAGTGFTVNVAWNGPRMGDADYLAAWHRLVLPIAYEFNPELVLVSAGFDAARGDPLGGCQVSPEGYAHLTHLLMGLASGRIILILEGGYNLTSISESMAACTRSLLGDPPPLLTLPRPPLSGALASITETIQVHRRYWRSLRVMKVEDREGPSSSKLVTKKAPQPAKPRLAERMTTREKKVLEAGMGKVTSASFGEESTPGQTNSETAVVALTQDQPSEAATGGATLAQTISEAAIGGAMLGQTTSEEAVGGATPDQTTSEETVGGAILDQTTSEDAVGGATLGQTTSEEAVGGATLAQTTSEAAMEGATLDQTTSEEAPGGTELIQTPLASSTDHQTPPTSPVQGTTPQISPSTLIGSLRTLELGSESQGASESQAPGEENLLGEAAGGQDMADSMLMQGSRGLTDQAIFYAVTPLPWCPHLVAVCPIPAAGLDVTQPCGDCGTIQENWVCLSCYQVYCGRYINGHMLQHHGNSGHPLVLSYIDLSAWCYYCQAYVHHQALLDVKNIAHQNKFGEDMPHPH
Outline: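 Fluorescence (Ex 390, Em 460) read after a 37° C, 60 min enzyme reaction and a further 30 min developer step at 37° C. Uses recombinant human HDAC6; HDAC1 arm dosed at 100, 1000, 10000 nM.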

HDAC1 = target: T2, HDAC1 (Homo sapiens, UniProt Q13547); experiment: HDAC enzyme activity inhibition (in vitro), HDAC1 Fluorimetric Drug Discovery Assay Kit; assay type: biochemical; conditions: samples at 100, 1000 and 10000 nM; 37° C. 60 minutes; fluorescence Ex 390, Em 460; read-out: HDAC1 IC50
T2 construct: purchased Enzolifesciences BML-AK511
T2 sequence (Q13547 whole entry): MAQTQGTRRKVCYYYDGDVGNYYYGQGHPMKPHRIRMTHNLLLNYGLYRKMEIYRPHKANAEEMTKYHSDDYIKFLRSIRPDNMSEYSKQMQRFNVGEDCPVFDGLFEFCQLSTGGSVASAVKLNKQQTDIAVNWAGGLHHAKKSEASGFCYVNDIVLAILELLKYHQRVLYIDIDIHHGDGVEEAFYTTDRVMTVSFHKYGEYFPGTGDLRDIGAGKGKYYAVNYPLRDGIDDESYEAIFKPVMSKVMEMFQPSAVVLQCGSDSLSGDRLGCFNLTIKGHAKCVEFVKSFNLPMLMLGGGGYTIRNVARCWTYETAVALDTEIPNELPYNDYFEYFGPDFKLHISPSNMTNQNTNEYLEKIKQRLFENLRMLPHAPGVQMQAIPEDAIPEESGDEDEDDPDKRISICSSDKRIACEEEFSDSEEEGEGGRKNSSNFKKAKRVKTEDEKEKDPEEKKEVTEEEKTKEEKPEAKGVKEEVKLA
Outline: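 Fluorescence read-out (Ex 390/Em 460) after developer step, 30 min at 37° C, following a 60-min 37° C enzyme reaction. Test concentrations: HDAC1 kit, 100–10000 nM (three levels); recombinant human HDAC6, 0.1–1000 nM (five levels).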

Structure (SMILES): CC(=O)N1CCC(n2c(=O)n(Cc3ccc(-c4nnc(C(F)F)o4)cc3F)c3cc(F)c(F)cc32)CC1 [Compound 174, 1-(1-acetylpiperidine-4-yl)-3-(4-(5-(difluoromethyl)-1,3,4-oxadiazole-2-yl)-2-fluorobenzyl)-5,6-difluoro-1,3-dihydro-2H-benzo[d]imidazole-2-one]
- IC50 (HDAC6 human recombinant): 50 nM
- IC50 (HDAC1): > 10 µM

Structure (SMILES): CC(=O)N1CCC(n2c(=O)n(Cc3ccc(-c4nnc(C(F)F)o4)cc3)c3cc(F)c(F)cc32)CC1 [Compound 175, 1-(1-acetylpiperidine-4-yl)-3-(4-(5-(difluoromethyl)-1,3,4-oxadiazole-2-yl)benzyl)-5,6-difluoro-1,3-dihydro-2H-benzo[d]imidazole-2-one]
- IC50 (HDAC6 human recombinant): 50 nM
- IC50 (HDAC1): > 10 µM

Structure (SMILES): CC(=O)N1CCC(n2c(=O)n(Cc3ccc(-c4nnc(C(F)F)o4)cn3)c3cc(C(F)(F)F)ccc32)CC1 [Compound 176, 1-(1-acetylpiperidine-4-yl)-3-((5-(5-(difluoromethyl)-1,3,4-oxadiazole-2-yl)pyridine-2-yl)methyl)-5-(trifluoromethyl)-1,3-dihydro-2H-benzo[d]imidazole-2-one]
- IC50 (HDAC6 human recombinant): 42 nM
- IC50 (HDAC1): > 10 µM

Structure (SMILES): Cc1ccc(-c2cc3c(cc2F)n(Cc2ccc(-c4nnc(C(F)F)o4)cn2)c(=O)n3C)o1 [Compound 177, 1-((5-(5-(difluoromethyl)-1,3,4-oxadiazole-2-yl)pyridine-2-yl)methyl)-6-fluoro-3-methy 1-5-(5-methylfuran-2-yl)-1,3-dihydro-2H-benzo[d]imidazole-2-one]
- IC50 (HDAC6 human recombinant): 71 nM
- IC50 (HDAC1): > 10 µM

Structure (SMILES): Cc1noc(C)c1-c1cc2c(cc1F)n(Cc1ccc(-c3nnc(C(F)F)o3)cn1)c(=O)n2C [Compound 178, 1-((5-(5-(difluoromethyl)-1,3,4-oxadiazole-2-yl)pyridine-2-yl)methyl)-5-(3,5-dimethylisoxazole-4-yl)-6-fluoro-3-methyl-1,3-dihydro-2H-benzo[d]imidazole-2-one]
- IC50 (HDAC6 human recombinant): 20 nM
- IC50 (HDAC1): > 10 µM

Structure (SMILES): CN1CCC(n2c(=O)n(Cc3ccc(-c4nnc(C(F)F)o4)cc3F)c3ccc(C4CCN(C(=O)CO)CC4)cc32)CC1 [Compound 179, 1-(4-(5-(difluoromethyl)-1,3,4-oxadiazole-2-yl)-2-fluorobenzyl)-5-(1-(2-hydroxyacetyl)piperidine-4-yl)-3-(1-methylpiperidine-4-yl)-1,3-dihydro-2H-benzo[d]imidazole-2-one]
- IC50 (HDAC6 human recombinant): 145 nM
- IC50 (HDAC1): > 10 µM

Structure (SMILES): CC(=O)N1CCC(n2c(=O)n(Cc3ccc(-c4nnc(C(F)F)o4)cc3F)c3cc(C(F)(F)F)ccc32)CC1 [Compound 180, 1-(1-acetylpiperidine-4-yl)-3-(4-(5-(difluoromethyl)-1,3,4-oxadiazole-2-yl)-2-fluorobenzyl)-5-(trifluoromethyl)-1,3-dihydro-2H-benzo[d]imidazole-2-one]
- IC50 (HDAC6 human recombinant): 38 nM
- IC50 (HDAC1): > 10 µM

Structure (SMILES): CC(=O)N1CCC(n2c(=O)n(Cc3ccc(-c4nnc(C(F)F)o4)cn3)c3ccc(Cl)cc32)CC1 [Compound 181, 3-(1-acetylpiperidine-4-yl)-5-chloro-1-((5-(5-(difluoromethyl)-1,3,4-oxadiazole-2-yl)pyridine-2-yl)methyl)-1,3-dihydro-2H-benzo[d]imidazole-2-one]
- IC50 (HDAC6 human recombinant): 68 nM
- IC50 (HDAC1): > 10 µM

Structure (SMILES): CC(=O)N1CCC(n2c(=O)n(Cc3ccc(-c4nnc(C(F)F)o4)cc3F)c3ccc(Cl)cc32)CC1 [Compound 182, 3-(1-acetylpiperidine-4-yl)-5-chloro-1-(4-(5-(difluoromethyl)-1,3,4-oxadiazole-2-yl)-2-fluorobenzyl)-1,3-dihydro-2H-benzo[d]imidazole-2-one]
- IC50 (HDAC6 human recombinant): 118 nM
- IC50 (HDAC1): > 10 µM

Structure (SMILES): CC(=O)N1CCC(n2c(=O)n(Cc3ccc(-c4nnc(C(F)F)o4)cc3)c3ccc(Cl)cc32)CC1 [Compound 183, 3-(1-acetylpiperidine-4-yl)-5-chloro-1-(4-(5-(difluoromethyl)-1,3,4-oxadiazole-2-yl)benzyl)-1,3-dihydro-2H-benzo[d]imidazole-2-one]
- IC50 (HDAC6 human recombinant): 73 nM
- IC50 (HDAC1): > 10 µM

Structure (SMILES): CC(=O)N1CCC(n2c(=O)n(Cc3ccc(-c4nnc(C(F)F)o4)cn3)c3ncccc32)CC1 [Compound 184, 1-(1-acetylpiperidine-4-yl)-3-((5-(5-(difluoromethyl)-1,3,4-oxadiazole-2-yl)pyridine-2-yl)methyl)-1,3-dihydro-2H-imidazo[4,5-b]pyridine-2-one]
- IC50 (HDAC6 human recombinant): 137 nM
- IC50 (HDAC1): > 10 µM

Structure (SMILES): CC(=O)N1CCC(n2c(=O)n(Cc3ccc(-c4nnc(C(F)F)o4)cc3F)c3ncccc32)CC1 [Compound 185, 1-(1-acetylpiperidine-4-yl)-3-(4-(5-(difluoromethyl)-1,3,4-oxadiazole-2-yl)-2-fluorobenzyl)-1,3-dihydro-2H-imidazo[4,5-b]pyridine-2-one]
- IC50 (HDAC6 human recombinant): 202 nM
- IC50 (HDAC1): > 10 µM

Structure (SMILES): CC(=O)N1CCC(n2c(=O)n(Cc3ccc(-c4nnc(C(F)F)o4)cc3)c3ncccc32)CC1 [Compound 186, 1-(1-acetylpiperidine-4-yl)-3-(4-(5-(difluoromethyl)-1,3,4-oxadiazole-2-yl)benzyl)-1,3-dihydro-2H-imidazo[4,5-b]pyridine-2-one]
- IC50 (HDAC6 human recombinant): 554 nM
- IC50 (HDAC1): > 10 µM

Structure (SMILES): CC(=O)N1CCC(n2c(=O)n(Cc3ccc(-c4nnc(C(F)F)o4)cn3)c3ccccc32)CC1 [Compound 187, 1-(1-acetylpiperidine-4-yl)-3-((5-(5-(difluoromethyl)-1,3,4-oxadiazole-2-yl)pyridine-2-yl)methyl)-1,3-dihydro-2H-benzo[d]imidazole-2-one]
- IC50 (HDAC6 human recombinant): 64 nM
- IC50 (HDAC1): > 10 µM

Structure (SMILES): O=c1n(Cc2ccc(-c3nnc(C(F)F)o3)cc2F)c2cc(F)ccc2n1C1CCS(=O)(=O)CC1 [Compound 189, 3-(4-(5-(difluoromethyl)-1,3,4-oxadiazole-2-yl)-2-fluorobenzyl)-1-(1,1-dioxydotetrahydro-2H-thiopyran-4-yl)-5-fluoro-1,3-dihydro-2H-benzo[d]imidazole-2-one]
- IC50 (HDAC6 human recombinant): 37 nM
- IC50 (HDAC1): > 10 µM

Structure (SMILES): O=c1n(Cc2ccc(-c3nnc(C(F)F)o3)cc2)c2cc(F)ccc2n1C1CCS(=O)(=O)CC1 [Compound 190, 3-(4-(5-(difluoromethyl)-1,3,4-oxadiazole-2-yl)benzyl)-1-(1,1-dioxydotetrahydro-2H-thiopyran-4-yl)-5-fluoro-1,3-dihydro-2H-benzo[d]imidazole-2-one]
- IC50 (HDAC6 human recombinant): 46 nM
- IC50 (HDAC1): > 10 µM

Structure (SMILES): CS(=O)(=O)N1CCC(n2c(=O)n(Cc3ccc(-c4nnc(C(F)F)o4)cn3)c3c(F)cccc32)CC1 [Compound 191, 3-((5-(5-(difluoromethyl)-1,3,4-oxadiazole-2-yl)pyridine-2-yl)methyl)-4-fluoro-1-(1-(methylsulfonyl)piperidine-4-yl)-1,3-dihydro-2H-benzo[d]imidazole-2-one]
- IC50 (HDAC6 human recombinant): 37 nM
- IC50 (HDAC1): > 10 µM

Structure (SMILES): CS(=O)(=O)N1CCC(n2c(=O)n(Cc3ccc(-c4nnc(C(F)F)o4)cc3)c3cc(F)ccc32)CC1 [Compound 192, 3-(4-(5-(difluoromethyl)-1,3,4-oxadiazole-2-yl)benzyl)-5-fluoro-1-(1-(methylsulfonyl)piperidine-4-yl)-1,3-dihydro-2H-benzo[d]imidazole-2-one]
- IC50 (HDAC6 human recombinant): 79 nM
- IC50 (HDAC1): > 10 µM
